Measurements as given in patent publication US20240116884A1, “Salts of Viloxazine” (Apotex Inc., priority 2022, published 2024).

Settings: uncapped samples, 40° C./75% RH stability chamber, at least 3 weeks
Description: PXRD diffractograms were recorded on a Bruker D8 Discover powder X-ray diffractometer (Bruker AXS LLC, Karlsruhe, Germany). The generator was a Incoatec Microfocus Source (IμS) Cu tube (λ=1.54060 Å) with a voltage of 50 kV and current of 1.00 mA, using a divergence slit of 0.1 mm and collimator of 2.0 mm. For each sample, two frames were collected using a still scan with a PILATUS3 R 100K-A detector at the distance of 294.2 mm from the sample. Raw data were evaluated using the program DIFFRAC.EVA (Bruker AXS LLC, Karlsruhe, Germany).

Molecule | change in the crystalline form by PXRD (form stability)
CCOc1ccccc1OCC1CNCCO1.O=S(=O)(O)c1ccc2ccccc2c1 (stereo not drawn) [viloxazine naphthalene-2-sulfonate] | no change in the crystalline form occurred
CCOc1ccccc1OCC1CNCCO1.CCOc1ccccc1OCC1CNCCO1.O=C(O)C(O)C(O)C(=O)O (racemic) [viloxazine hemi-DL-tartrate Form APO-I, viloxazine hemi-DL-tartrate] | no change in the crystalline form occurred
viloxazine fumarate [viloxazine fumarate Form APO-I] | no change in the crystalline form occurred
